Laboratory results taken from patent US8211883B2, “Topical delivery of phthalocyanines” (priority 2004, dated 2012).
Marks after values point to notes of the source that are not given here.

Experiments:
[1] = tested on: Chinese hamster V79-379 lung fibroblasts; experiment: Uptake of phthalocyanines into V79 cells; settings: for Uptake Into V79 Cells, 1 μM / Uptake Into V79 Cells, 4 μM: 18 hours; for n Moles/10^6 Cells/μM (composite uptake value): V79 cells, average of all data, asterisk: listed value is for 1 μM, average would be higher
How it was run: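 V79-379 cells were incubated with phthalocyanine for 18 h, typically at 1, 2 and/or 4 μM. Cells collected on filters were extracted into ethanol and absorbance read at the peak, usually 668 nm. Values are nmol per 10^6 cells, using ε 2.93×10^5.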

[2] = tested on: Chinese hamster V79-379 lung fibroblasts; experiment: Clonogenic cell survival of V79 cells after photodynamic treatment; assay type: cell-based; settings: for LD 90 (light dosage that kills 90% of cells): 18 hours, 675 nm red light; for CF10(AIPcCI)/CF10 (Pc): CF10 = product of intracellular concentration and fluence reducing survival to 10%; for F10(AIPcCI)/F10 (Pc): F10 = fluence reducing cell survival to 10%
How it was run: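 V79 cells exposed to 0.5 or 1.0 μM phthalocyanine, then irradiated about 18 h later with increasing fluences of broad-band red light (600 nm high-pass filter). Survival scored as colonies of ≥50 cells. F10 taken from survival curves; CF10 from survival against intracellular concentration × fluence; 1 μM AlPcCl run as reference.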

RIF-1 tumors = experiment: RIF-1 implanted tumors, PcIV followed by multiple exposures to light; assay type: in vivo, C3H/HeN mice
Method: To overcome the regrowth, RIF-1 tumors were implanted in C3H/HeN mice, and the mice were treated with PcIV followed by multiple exposures to light. For multiple exposures to light to be successful, the tumor tissue must retain sufficient levels of the photosensitizer over the exposure period.

[3] = 0.5 μM, VII# preplated data only, XXI* not totally soluble at 0.5 mM

## CCN(CCC[Si](C)(C)O[Si]1(O[Si](C)(C)CCCN(CC)CCN(C)C)n2c3c4ccccc4c2N=C2N=C(N=c4c5ccccc5c(n41)=NC1=NC(=N3)c3ccccc31)c1ccccc12)CCN(C)C [Compound XVIII, SiPc[OSi(CH3)2(CH2)3N(CH2CH3)(CH2)2N(CH3)2]2]
[1]
  Uptake Into V79 Cells, 1 μM: 0.3 ± 0.1 n Moles/10^6 cells
  Uptake Into V79 Cells, 4 μM: 3.6 ± 0.6 n Moles/10^6 cells
  n Moles/10^6 Cells/μM (composite uptake value): 0.3* n Moles/10^6 Cells/μM
[2]; 1 μM
  LD 90 (light dosage that kills 90% of cells): 7 kj/m^2

## CN(C)CCC[Si](C)(C)O[Si]1(O[Si](C)(C)CCCN(C)C)n2c3c4ccccc4c2N=C2N=C(N=c4c5ccccc5c(n41)=NC1=NC(=N3)c3ccccc31)c1ccccc12 [Compound XII, SiPc[OSi(CH3)2(CH2)3N(CH3)2]2]
[1]
  Uptake Into V79 Cells, 1 μM: 2.1 ± 1.2 n Moles/10^6 cells
  Uptake Into V79 Cells, 4 μM: 4.6 ± 1.5 n Moles/10^6 cells
  n Moles/10^6 Cells/μM (composite uptake value): 1.6 n Moles/10^6 Cells/μM
[2]; [3]
  LD 90 (light dosage that kills 90% of cells): 3.3 kj/m^2

## CN(C)CCC[Si](C)(C)O[Si]1(O)n2c3c4ccccc4c2N=C2N=C(N=c4c5ccccc5c(n41)=NC1=NC(=N3)c3ccccc31)c1ccccc12 (stereo not shown) [Compound IV, HOSiPcOSi(CH3)2(CH2)3N(CH3)2]
RIF-1 tumors; 1 mg/kg in DPPC liposomes, 30 days, day of exposure 2
  % of Mice Surviving: 100%
RIF-1 tumors; 1 mg/kg in DPPC liposomes, 30 days, days of exposure 2, 3, 4, 5, and 6
  % of Mice Surviving: 0%
RIF-1 tumors; 1 mg/kg in DPPC liposomes, 30 days, days of exposure 2, 3, and 4
  % of Mice Surviving: 0%
RIF-1 tumors; 1 mg/kg in DPPC liposomes, 30 days, days of exposure 2-6
  % of Mice Surviving: 0%
RIF-1 tumors; 1 mg/kg in DPPC liposomes, 30 days, days of exposure 2 and 3
  % of Mice Surviving: 100%
RIF-1 tumors; 1 mg/kg in DPPC liposomes, 30 days, days of exposure 2 and 7
  % of Mice Surviving: 100%
RIF-1 tumors; 1 mg/kg in DPPC liposomes, 120 days, days of exposure 2, 3, 4, 5, and 6
  % of Mice Surviving: 0%
RIF-1 tumors; 1 mg/kg in DPPC liposomes, 120 days, days of exposure 2, 3, and 4
  % of Mice Surviving: 0%
RIF-1 tumors; 1 mg/kg in DPPC liposomes, 120 days, days of exposure 2-6
  % of Mice Surviving: 0%
RIF-1 tumors; 1 mg/kg in corn oil, 15 days, day of exposure 2
  % of Mice Surviving: 100%
RIF-1 tumors; 1 mg/kg in corn oil, 15 days, days of exposure 2, 3, 4, 5, and 6
  % of Mice Surviving: 100%
RIF-1 tumors; 1 mg/kg in corn oil, 15 days, days of exposure 2, 3, and 4
  % of Mice Surviving: 100%
RIF-1 tumors; 1 mg/kg in corn oil, 15 days, days of exposure 2-6
  % of Mice Surviving: 100%
RIF-1 tumors; 1 mg/kg in corn oil, 15 days, days of exposure 2 and 3
  % of Mice Surviving: 100%
RIF-1 tumors; 1 mg/kg in corn oil, 15 days, days of exposure 2 and 7
  % of Mice Surviving: 100%
RIF-1 tumors; DPPC liposomes, three to five irradiations, 300 days after the light treatment
  tumor regrowth at sacrifice: no evidence of tumor regrowth
RIF-1 tumors; entrapped in DPPC liposomes, mice irradiated three, four or five times at an interval of 24 hours
  tumor cure: complete tumor cure
RIF-1 tumors; given in corn oil, all the multiple exposure protocols
  tumor regrowth: regrowth of tumors was evident 15 days after photodynamic therapy
[2]; [3]
  LD 90 (light dosage that kills 90% of cells): 4 kj/m^2
[2]; 0.5 μM
  CF10(AIPcCI)/CF10 (Pc): 3.9
  F10(AIPcCI)/F10 (Pc): 1.85
[2]; 1.0 μM
  CF10(AIPcCI)/CF10 (Pc): 3.5
  F10(AIPcCI)/F10 (Pc): 4.25
